ChEMBL document CHEMBL3351341, “Discovery of a potent and selective EGFR inhibitor (AZD9291) of both sensitizing and T790M resistance mutations that spares the wild type form of the receptor” (J Med Chem, 2014)
Converted amounts (≈) assume the structure as drawn.

Assays:
Plasma [1] = assay: Drug metabolism in rat plasma treated with N-[2-(2-Dimethylaminoethylmethylamino)-4-methoxy-5-[[4-(1-methylindol-3-yl)pyrimidin-2-yl]amino]phenyl]prop-2-enamide; type: ADME, cell-free
[2] = (§1) Unbound fraction in human plasma; type: ADME, cell-free
[3] = Intrinsic clearance in rat hepatocytes measured per 10^6 cells; type: ADME, cell-based, Hepatocyte; conditions: read-out: CLH
Plasma [4] = assay: Drug metabolism in mouse plasma treated with N-[2-(2-Dimethylaminoethylmethylamino)-4-methoxy-5-[[4-(1-methylindol-3-yl)pyrimidin-2-yl]amino]phenyl]prop-2-enamide; type: ADME, cell-free
[5] = target: Insulin-like growth factor 1 receptor (Homo sapiens, UniProt P08069); assay: Inhibition of IGF1R (unknown origin)
[6] = Intrinsic clearance in human hepatocytes measured per 10^6 cells; type: ADME, cell-based, Hepatocyte; conditions: read-out: CLH
[7] = Fraction unbound in Han Wistar rat plasma; type: ADME, cell-free
[8] = target: Voltage-gated inwardly rectifying potassium channel KCNH2 (Homo sapiens, UniProt Q12809); assay: Inhibition of human ERG
[9] = Lipophilicity, log D of the compound at pH 7.4; type: physicochemical; conditions: buffer
[10] = Cytotoxicity against human Calu3 cells assessed as growth inhibition after 72 hrs by SYTOX green nucleic acid staining-based fluorescence assay; type: functional, Calu-3
[11] = Cytotoxicity against human PC9 cells harboring EGFR exon 19 deletion activating mutant assessed as growth inhibition after 72 hrs by SYTOX green nucleic acid staining-based fluorescence assay; type: functional, PC-9
[12] = Thermodynamic solubility of the compound at pH 7.4; type: physicochemical; conditions: buffer, read-out: Therm_solubility
[13] = Unbound fraction in nude mouse plasma; type: ADME, cell-free
NCI-H1975 [14] = assay: Cytotoxicity against human NCI-H1975 cells harboring EGFR L858R/[…] double mutant assessed as growth inhibition after 72 hrs by SYTOX green nucleic acid staining-based fluorescence assay; type: functional
A-431 [15] = assay: Antitumor activity against human A431 cells xenografted in SCID mouse assessed as tumor growth inhibition at 5 mg/kg/day, po qd for 7 days relative to control; type: functional
A-431 [16] = assay: Antitumor activity against human A431 cells xenografted in SCID mouse assessed as tumor growth inhibition at 10 mg/kg/day, po qd for 7 days relative to control; type: functional
A-431 [17] = assay: Antitumor activity against human A431 cells xenografted in SCID mouse assessed as tumor growth inhibition at […], po qd for 7 days relative to control; type: functional
NCI-H1975 [18] = assay: Antitumor activity against human NCI-H1975 cells harboring EGFR L858R/[…] double mutant xenografted in SCID mouse assessed as tumor growth inhibition at […], po qd for 7 days relative to control; type: functional
A-431 [19] = assay: Antitumor activity against human A431 cells xenografted in SCID mouse assessed as tumor growth inhibition at 20 mg/kg/day, po qd for 7 days relative to control; type: functional; conditions: A-431, 168 h, read-out: TGI
NCI-H1975 [20] = assay: Antitumor activity against human NCI-H1975 cells harboring EGFR L858R/[…] double mutant xenografted in SCID mouse assessed as tumor growth inhibition at 5 mg/kg/day, po qd for 7 days relative to control; type: functional
NCI-H1975 [21] = assay: Antitumor activity against human NCI-H1975 cells harboring EGFR L858R/[…] double mutant xenografted in SCID mouse assessed as tumor growth inhibition at 20 mg/kg/day, po qd for 7 days relative to control; type: functional; conditions: NCI-H1975, 168 h, read-out: TGI
NCI-H1975 [22] = assay: Antitumor activity against human NCI-H1975 cells harboring EGFR L858R/[…] double mutant xenografted in SCID mouse assessed as tumor growth inhibition at 10 mg/kg/day, po qd for 7 days relative to control; type: functional
Plasma [23] = assay: as §1; type: ADME, cell-free
[24] = Half life of the compound by GSH reduction assay; type: physicochemical; conditions: glutathione (GSH)
Plasma [25] = assay: Drug metabolism in mouse plasma assessed as dealkylation of compound; type: ADME, cell-free
[26] = Cmax in mouse at 10 mg/kg, po; type: ADME, organism-based; parameters: dose 10 mg/kg, route oral; conditions: in vivo
[27] = Oral bioavailability in Han Wistar rat at 5 mg/kg; type: ADME, organism-based; conditions: in vivo
[28] = Antitumor activity against human PC9 cells harboring EGFR exon 19 deletion activating mutant xenografted in SCID mouse assessed as tumor growth inhibition at 10 mg/kg/day, po qd for 7 days relative to control; type: functional, PC-9
Rattus norvegicus [29] = assay: Toxicity in rat at 200 mg/kg, po as single dose measured over 24 hrs; type: organism-based; parameters: dose 200 mg/kg, route oral; conditions: in vivo
Plasma [30] = assay: Drug metabolism in mouse plasma assessed as loss of indole N-methyl group; type: ADME, cell-free
Cavia porcellus = assay: Cardiotoxicity in anesthetized guinea pig assessed as QT prolongation at fCmax concentration; type: toxicity, organism-based; conditions: in vivo
Plasma [31] = assay: Drug metabolism in rat plasma assessed as dealkylation of compound; type: ADME, cell-free
Rattus norvegicus [32] = assay: Toxicity in rat assessed as hyperglycemia at 200 mg/kg, po as single dose measured over 24 hrs; type: organism-based; parameters: dose 200 mg/kg, route oral; conditions: in vivo
Insulin receptor = Insulin receptor (Homo sapiens, UniProt P06213); assay: Inhibition of INSR (unknown origin)
Plasma [33] = assay: Drug metabolism in rat plasma assessed as loss of indole N-methyl group; type: ADME, cell-free
Rattus norvegicus [34] = assay: Clearance in iv dosed Han Wistar rat; type: ADME, organism-based; conditions: in vivo
[35] = Mus musculus, A-431, 168 h, read-out: TGI
[36] = Mus musculus, NCI-H1975, 168 h, read-out: TGI

Insulin-like growth factor 1 receptor, sequence (P08069 31-736 limits assumed): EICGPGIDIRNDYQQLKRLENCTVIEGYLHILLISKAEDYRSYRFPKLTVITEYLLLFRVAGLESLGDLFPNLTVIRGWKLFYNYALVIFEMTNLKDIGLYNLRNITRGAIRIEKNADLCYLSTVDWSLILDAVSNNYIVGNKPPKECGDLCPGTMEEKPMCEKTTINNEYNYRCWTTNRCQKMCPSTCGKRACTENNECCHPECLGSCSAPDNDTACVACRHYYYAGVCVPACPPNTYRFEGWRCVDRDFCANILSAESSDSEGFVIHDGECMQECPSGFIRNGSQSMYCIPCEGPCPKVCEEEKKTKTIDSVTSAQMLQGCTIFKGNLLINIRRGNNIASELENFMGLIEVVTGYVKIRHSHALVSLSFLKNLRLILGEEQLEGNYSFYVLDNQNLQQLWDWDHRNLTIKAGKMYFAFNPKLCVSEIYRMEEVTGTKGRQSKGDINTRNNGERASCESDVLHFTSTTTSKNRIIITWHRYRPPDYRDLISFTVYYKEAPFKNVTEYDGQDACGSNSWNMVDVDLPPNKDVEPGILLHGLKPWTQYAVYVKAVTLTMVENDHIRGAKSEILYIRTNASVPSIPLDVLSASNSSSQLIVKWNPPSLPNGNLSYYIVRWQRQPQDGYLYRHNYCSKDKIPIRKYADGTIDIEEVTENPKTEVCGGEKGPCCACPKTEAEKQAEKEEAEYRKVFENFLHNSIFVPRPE
Insulin-like growth factor 1 receptor, sequence (P08069 741-1367 limits assumed): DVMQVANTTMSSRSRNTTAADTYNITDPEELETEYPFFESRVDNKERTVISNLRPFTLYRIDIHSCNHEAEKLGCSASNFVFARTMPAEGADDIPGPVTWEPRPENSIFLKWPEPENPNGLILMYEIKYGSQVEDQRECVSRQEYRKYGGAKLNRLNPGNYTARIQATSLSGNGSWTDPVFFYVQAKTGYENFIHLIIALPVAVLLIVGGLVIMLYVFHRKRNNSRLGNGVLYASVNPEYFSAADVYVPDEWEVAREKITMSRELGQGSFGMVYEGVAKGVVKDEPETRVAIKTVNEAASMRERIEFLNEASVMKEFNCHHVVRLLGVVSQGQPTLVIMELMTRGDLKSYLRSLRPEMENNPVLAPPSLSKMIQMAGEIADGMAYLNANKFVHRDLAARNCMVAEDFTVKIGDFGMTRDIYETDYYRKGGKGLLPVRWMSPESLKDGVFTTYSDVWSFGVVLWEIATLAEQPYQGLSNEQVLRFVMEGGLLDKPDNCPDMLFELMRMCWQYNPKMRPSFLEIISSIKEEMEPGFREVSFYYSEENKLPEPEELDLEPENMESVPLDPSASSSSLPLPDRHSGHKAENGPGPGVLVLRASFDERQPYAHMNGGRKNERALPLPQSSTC
Voltage-gated inwardly rectifying potassium channel KCNH2, sequence (Q12809 whole entry): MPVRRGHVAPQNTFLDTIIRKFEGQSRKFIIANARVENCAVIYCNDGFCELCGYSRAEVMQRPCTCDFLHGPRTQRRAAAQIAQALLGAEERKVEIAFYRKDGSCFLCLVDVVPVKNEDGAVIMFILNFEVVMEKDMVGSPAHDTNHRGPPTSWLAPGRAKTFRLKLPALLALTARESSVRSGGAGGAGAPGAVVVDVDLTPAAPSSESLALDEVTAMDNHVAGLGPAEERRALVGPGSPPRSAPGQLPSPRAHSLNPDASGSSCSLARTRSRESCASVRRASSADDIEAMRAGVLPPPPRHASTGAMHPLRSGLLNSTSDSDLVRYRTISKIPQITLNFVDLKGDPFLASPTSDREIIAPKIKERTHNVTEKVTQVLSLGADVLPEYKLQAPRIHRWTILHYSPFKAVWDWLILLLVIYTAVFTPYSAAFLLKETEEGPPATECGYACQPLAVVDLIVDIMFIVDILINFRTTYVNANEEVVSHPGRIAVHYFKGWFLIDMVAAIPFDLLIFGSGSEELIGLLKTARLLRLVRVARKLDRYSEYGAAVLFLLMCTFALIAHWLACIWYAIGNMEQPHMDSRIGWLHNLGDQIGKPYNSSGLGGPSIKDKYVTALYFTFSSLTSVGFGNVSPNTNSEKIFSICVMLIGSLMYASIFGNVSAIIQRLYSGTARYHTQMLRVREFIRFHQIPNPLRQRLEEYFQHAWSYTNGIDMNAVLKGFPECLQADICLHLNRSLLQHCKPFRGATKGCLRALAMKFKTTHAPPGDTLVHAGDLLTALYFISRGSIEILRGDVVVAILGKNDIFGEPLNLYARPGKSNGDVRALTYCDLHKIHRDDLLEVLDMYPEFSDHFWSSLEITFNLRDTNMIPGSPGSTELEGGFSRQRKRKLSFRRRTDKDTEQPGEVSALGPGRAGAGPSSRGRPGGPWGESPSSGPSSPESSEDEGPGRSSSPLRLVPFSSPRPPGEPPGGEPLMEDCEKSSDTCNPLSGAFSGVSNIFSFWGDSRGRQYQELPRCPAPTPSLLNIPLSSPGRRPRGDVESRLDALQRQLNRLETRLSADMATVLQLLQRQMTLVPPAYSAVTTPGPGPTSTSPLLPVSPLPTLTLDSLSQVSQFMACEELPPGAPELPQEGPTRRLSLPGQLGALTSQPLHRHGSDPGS
Insulin receptor, sequence (P06213 28-758 limits assumed): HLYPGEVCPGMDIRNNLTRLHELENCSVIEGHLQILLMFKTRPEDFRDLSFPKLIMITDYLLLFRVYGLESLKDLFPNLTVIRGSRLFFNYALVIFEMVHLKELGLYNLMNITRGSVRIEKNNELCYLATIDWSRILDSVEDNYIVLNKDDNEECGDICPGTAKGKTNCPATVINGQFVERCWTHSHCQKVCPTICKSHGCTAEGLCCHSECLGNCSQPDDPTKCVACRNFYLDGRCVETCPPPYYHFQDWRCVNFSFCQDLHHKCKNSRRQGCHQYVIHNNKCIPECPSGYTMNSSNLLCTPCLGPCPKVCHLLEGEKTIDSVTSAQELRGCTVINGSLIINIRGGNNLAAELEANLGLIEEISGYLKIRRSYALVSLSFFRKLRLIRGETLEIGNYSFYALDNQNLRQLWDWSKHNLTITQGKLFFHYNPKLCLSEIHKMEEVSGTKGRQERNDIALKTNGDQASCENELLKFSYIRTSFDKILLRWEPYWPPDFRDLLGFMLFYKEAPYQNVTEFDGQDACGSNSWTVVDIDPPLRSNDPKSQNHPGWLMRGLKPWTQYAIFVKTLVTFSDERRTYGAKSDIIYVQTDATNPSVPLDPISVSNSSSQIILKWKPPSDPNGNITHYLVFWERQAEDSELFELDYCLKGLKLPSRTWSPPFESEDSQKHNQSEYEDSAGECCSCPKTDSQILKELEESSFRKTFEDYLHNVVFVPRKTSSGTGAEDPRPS
Insulin receptor, sequence (P06213 763-1382 limits assumed): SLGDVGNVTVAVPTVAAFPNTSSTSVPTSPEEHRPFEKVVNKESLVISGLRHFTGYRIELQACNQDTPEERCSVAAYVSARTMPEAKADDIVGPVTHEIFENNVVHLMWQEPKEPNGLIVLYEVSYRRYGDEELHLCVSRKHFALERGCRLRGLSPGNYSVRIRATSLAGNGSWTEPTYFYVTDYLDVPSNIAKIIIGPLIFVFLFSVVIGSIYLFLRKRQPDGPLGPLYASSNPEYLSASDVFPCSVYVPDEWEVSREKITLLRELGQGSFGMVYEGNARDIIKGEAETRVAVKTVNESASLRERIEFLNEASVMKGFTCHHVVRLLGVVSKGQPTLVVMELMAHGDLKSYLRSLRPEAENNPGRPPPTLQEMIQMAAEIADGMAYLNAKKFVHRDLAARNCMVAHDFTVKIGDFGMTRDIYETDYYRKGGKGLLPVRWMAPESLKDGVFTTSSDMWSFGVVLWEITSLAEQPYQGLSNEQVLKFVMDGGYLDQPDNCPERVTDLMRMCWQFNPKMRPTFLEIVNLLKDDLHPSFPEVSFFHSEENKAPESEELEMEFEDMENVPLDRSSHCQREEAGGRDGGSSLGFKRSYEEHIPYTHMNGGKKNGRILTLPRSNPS

With `C=CC(=O)Nc1cc(Nc2nccc(-c3cn(C)c4ccccc34)n2)c(OC)cc1N(C)CCNC` the Drug metabolism (Plasma [1]) was “metabolite_detected”, the fraction unbound [2] was 0.039 and the hepatocyte CLint [3] was 50 µL/min/1e6 cells. The Drug metabolism (Plasma [4]) was “metabolite_detected”, the IC50 [5] was 1.6 µM and the hepatocyte CLint [6] was less than 3 µL/min/1e6 cells. It also gave a fraction unbound [7] of 0.023, an IC50 [8] greater than 33 µM and a logD [9] of 2.3. For the same compound, the GI50 ([10]; Homo sapiens, Calu-3, 72 h) was 0.537 µM, the GI50 ([11]; Homo sapiens, PC-9, 72 h) was 0.015 µM and the solubility thermodynamic [12] was 14 µM (≈ 6.8 µg/mL). It also gave a fraction unbound [13] of 0.0105 and a GI50 (NCI-H1975 [14]; Homo sapiens, NCI-H1975, 72 h) of 0.019 µM.

Work on `CN(C)C/C=C/C(=O)Nc1cc2c(Nc3ccc(F)c(Cl)c3)ncnc2cc1O[C@H]1CCOC1` [AFATINIB] yielded an inhibition in vivo at 5 mg/kg/day (A-431 [15]; [35]) of 84%, an inhibition in vivo at 10 mg/kg/day (A-431 [16]; [35]) of 131% and an inhibition in vivo at […] (A-431 [17]; A-431, 168 h, read-out: TGI) of 84%. For the same compound, the inhibition in vivo at […] (NCI-H1975 [18]; NCI-H1975, 168 h, read-out: TGI) was 16%, the inhibition in vivo at 20 mg/kg/day (A-431 [19]) was 158% and the inhibition in vivo at 5 mg/kg/day (NCI-H1975 [20]; [36]) was 23%. The inhibition in vivo at 20 mg/kg/day (NCI-H1975 [21]) was 74% and the inhibition in vivo at 10 mg/kg/day (NCI-H1975 [22]; [36]) was 25%.

`C=CC(=O)Nc1cc(Nc2nccc(-c3cn(C)c4ccccc34)n2)c(OC)cc1N(C)CCN(C)C` [OSIMERTINIB] showed a Fu (Plasma [23]) of 2.9%, a half-life [24] of 2.02 h and a hepatocyte CLint [3] of 27 µL/min/1e6 cells. For the same compound, the Drug metabolism (Plasma [25]) was “metabolite_detected”, the Cmax [26] was 0.38 µM and the TGI (A-431 [15]) was 79%. The bioavailability [27] was 45%, the TGI [28] was 267% and the TGI (A-431 [16]) was 102%. The Activity (Rattus norvegicus [29]) was “Non-toxic”, the Drug metabolism (Plasma [30]) was “metabolite_detected” and the IC50 [5] was 2.9 µM. The Activity (Cavia porcellus) was “Non-toxic”, the TGI (A-431 [17]) was 65% and the hepatocyte CLint [6] was 3.4 µL/min/1e6 cells. The Drug metabolism (Plasma [31]) was “metabolite_detected”, the fraction unbound [7] was 0.032 and the TGI (NCI-H1975 [18]) was 120%. The logD [9] was 3.4, the Activity (Rattus norvegicus [32]) was “Non-toxic” and the TGI (NCI-H1975 [20]) was 134%. The GI50 [10] was 0.264 µM, the TGI (NCI-H1975 [22]) was 148% and the GI50 [11] was 0.023 µM. It also gave an IC50 (Insulin receptor) of 0.912 µM, a solubility thermodynamic [12] of 7 µM (≈ 3.5 µg/mL) and a fraction unbound [13] of 0.034. For the same compound, the Drug metabolism (Plasma [33]) was “metabolite_detected”, the GI50 (NCI-H1975 [14]) was […] and the clearance (Rattus norvegicus [34]) was 2.7 L/h/kg.
